Results on three molecules are retold here after patent US7598377B2, “Inhibition of phosphoinositide 3-kinase β” (AstraZeneca AB, priority 2002, dated 2009).

Assay [1] has as its system platelet thrombus formation in citrated whole blood. In words: Platelet thrombus formation under flow (Example 12, 600 s^−1). The settings on record: read-out: Inhibition of Thrombus formation Example 12 IC50/. It is filed as cell-based. The protocol: Blood was perfused through von Willebrand factor—(vWf) coated microcapillary tubes for 2 minutes at 600 s^−1. Non-adherent cells were removed by perfusion of buffer for 2 minutes at 600 s^−1 and any adherent erythrocytes lysed through treatment with 1% ammonium oxalate. Adherent platelets were then lysed through addition of 1% Triton X-100 and lactate dehydrogenase (LDH) levels (U/L) analysed by spectrophotometry.

For assay [2], the system named is platelet rich plasma. In words: CD9-antibody induced platelet aggregation of platelet rich plasma. The class given is cell-based. The settings on record: read-out: Platelet aggregation v. CD9 antibody Example 10 IC50/. The protocol: The inhibitory effect of TGX286 and KN327 on platelet aggregation induced by the antibody CD9 was examined in platelet rich plasma (PRP). A suspension of PRP was incubated with 20-100 nM TGX286 or control buffer (0.1% DMSO) and treated with an aliquot of the antibody. Aggregation under stirring was monitored in a four channel aggregometer for 10 minutes. The level of aggregation was measured as the change in light transmission through the sample cell.

Assay [3] has as its system neutrophils. In words: Neutrophil ROS response (fmlp, DHR, FACS). It is filed as cell-based, human. The settings on record: fmlp stimulation, read-out: ROS release from neutrophils Example 14 IC50/. The protocol: 3 ml of preservative free whole blood was placed in a 50 ml conical tube. 48 ml of erythrocyte lysing solution and gently mixed by inversion for 10 min at 25° C. on a haematology nutator and subsequently centrifuged for 10 min at 350×g at 25° C. in a table top centrifuge. The Leukocyte rich pellet was resuspended in phosphate buffered saline supplemented with […] (PBS-gel) and centrifuged as above. The Leukocyte pellet was washed once with Hanks' balanced salt solution (HBSS) and resuspended at a final cell count of 2×10^6/ml and used immediately.
Reactive Oxygen Species (ROS) generation is one of the hall-marks of neutrophil activation. A number of chemokines and cytokines potentiate ROS generation by neutrophils. […] ROS generation was measured by monitoring the oxidation of intracellular dihydrorhodamine 123 (DHR) via fluorescence activated cell sorting (FACS) by modification of the method of Robinson et al., (pp 9.7.5-9.7.9 in Curr. Protocols in Cytometry (1997)). A Leukocyte suspension was bulk loaded with 2 μl of 50 mM DHR per ml cells ([…]) and incubated at 37° C. for 12 min. […] Fluorescence base-line data was calibrated using these gated control neutrophils. Stimulated cell samples were analysed and linear green fluorescence (DHR) was monitored for 5000 gated neutrophils from each sample. […]

The subject of assay [4] is carotid artery cyclic flow reductions in rat. In words: Animal model of internal carotid artery occlusion (Folts). It is filed as in vivo. The settings on record: 14.0 mg/kg via the jugular vein. The text has this: This model is used to investigate the effects of antithrombotic drugs on clotting time in vivo in response to a crash injury followed by arterial stenosis.
The carotid artery of an anesthetized rat is dissected out, and an electromagnetic flow probe is placed around the artery to measure blood flow. Proximal to the flow probe, the artery is clamped with surgical forceps covered with silicone tubing to cause intimal and medial damage to the vessel wall. A ligature, or plastic cylinder of appropriate inside diameter is laced around the artery to produce a 70% reduction in arterial diameter.
Platelets aggregate in the area of the stenosed and damaged arterial vessel, gradually forming an occlusive platelet thrombus, seen as a decrease in blood flow. As the thrombus forms, blood pressure increases, causing the thrombus to fragment and embolize distal to the stenosed site. […] This causes a sudden restoration of blood flow. Platelets again aggregate in the area of the stenosed and damaged arterial vessel, repeating the thrombus-embolization pattern. This acute, platelet-mediated thrombus formation, followed by embolization, causes Cyclic Flow Reductions (CFR) in blood flow. Once a rat produces regular CFRs, an anti-thrombotic compound or vehicle control is administered via the jugular vein.

Assay [5] concerns the target T1, P110 δ (Homo sapiens, UniProt O00329).
T1 construct: The δ isoform was immunoprecipitated from THP-1 cells; endogenous in cells; host or cells: THP-1 cells (immunoprecipitated with antibody sc-7176)
In words: Isoform selective in vitro PI3K enzyme assay (Example 13), δ from THP-1 cells. It is filed as biochemical. The settings on record: read-out: P110 δ IC50s. The protocol: In vitro enzyme assays were conducted as a primary screen to determine drug candidate isoform affinity and specificity. […] The γ isoform was produced as a recombinant protein in the Kinacia laboratories. […] Standard phosphorylation assays using phosphatidylinositol and ^32P were used to measure the enzyme activity in the immunoprecipates in the presence or absence of an inhibitor. Enzyme activity was determined over a range of inhibitor concentrations to establish an IC50 value.

Assay [6] concerns the target T2, P110 γ (Homo sapiens, UniProt P48736).
T2 construct: made in house
In words: Isoform selective in vitro PI3K enzyme assay (Example 13), γ recombinant. It is filed as biochemical. The settings on record: read-out: P110 γ IC50s. The protocol:
In vitro enzyme assays were conducted as a primary screen to determine drug candidate isoform affinity and specificity. The α and β isoforms of the PI3K were immunoprecipitated from a platelet lysate, using an antibodies obtained from Santa Cruz Biotechnology, that recognized specific regions of p110α (sc-7174) and β (sc-603) isoforms. The γ isoform was produced as a recombinant protein in the Kinacia laboratories. […] Standard phosphorylation assays using phosphatidylinositol and ^32P were used to measure the enzyme activity in the immunoprecipates in the presence or absence of an inhibitor. Enzyme activity was determined over a range of inhibitor concentrations to establish an IC50 value.

The subject of assay [7] is PI 3-kinase immunoprecipitated from human platelets (p85/110 form). In words: In vitro PI 3-kinase assay (Example 8), Platelet IP (p85). It is filed as biochemical. The settings on record: read-out: Platelet IP (p85) IC50s. The protocol:
The effect of pyridine-substituted compounds on PI 3-kinase activity was determined using an in vitro PI 3-kinase assay. This assay was performed using PI 3-kinase immunoprecipitated from human platelets as the enzyme and PI as the substrate. The PI 3-kinase activity was quantitated by measuring the enzymatic incorporation of [^32P] into PI, forming PI([^32P]-3)P, as previously described (Susa et al., 1992, The Journal of Biological Chemistry 267(32):22951-22956.
Washed human platelets were lysed in Triton X-100 lysis buffer (10 mM Tris, pH 7.4, 1% Triton X-100, 2 mM EDTA, 1 mM PMSF) for 30 minutes. The Triton X-100 insoluble fraction was removed by centrifugation of the cell lysates at 15,000 g for 10 minutes. PI 3-kinase was immunoprecipitated by mixing 500 μg of the cell lysate with 1 μg of a rabbit anti-rat antibody against the p85/110 form of PI 3-kinase and 30 μl of 50% Protein A-sepharose beads for 2 hours at 4° C. The Protein A-sepharose-bound PI 3-kinase was isolated by pelleting the beads at 15,000 g for 5 seconds, and washing three times with ice-cold Triton X-100 lysis buffer followed by four washes with PI 3-kinase assay buffer (20 mM HEPES, pH 7.4, 1 mM EGTA, 5 mM MgCl2).
PI stored in CHCl3 was dried under N2, resuspended in the lipid buffer (50 mM HEPES, pH 7.2, 1 mM EDTA) at a final concentration of 330 μg/ml, and sonicated for 6 minutes on ice. PI([^32P]-3)P was generated by mixing the immunoprecipitated PI 3-kinase for 20 minutes with 40 μl of the PI, 10 μl of ATP (1 mM) and ^32P-r-ATP (0.5 μCi, 1 μCi/nmol), 10 μl of 10× kinase buffer, in a final assay volume of 100 μl adjusted with H2O. TGX-was preincubated with the PI 3-kinase for 5 minutes prior to the addition of ATP. The assay was terminated with 100 μl of 1 N HCl, and the PI([^32P]-3)P product extracted with 200 μl chloroform:methanol (1:1) and 500 μl 2 M KCl. The PI([^32P]-3)P in the chloroform phase was resolved by thin layer chromatography using a solvent system containing CHCl3:MeOH:HAC:H2O (43:38:5:7) (v:v:v:v), and visualized by autoradiography. The PI([^32P]-3)P spots were then scraped off from the TLC plates, deacylated with 1 ml methylamine:butanol:methanol (42:9:47) (v:v:v) for 4 hours at 53° C., and quantitated using a liquid scintillation counter (LKB 1209 RackBETA).

Assay [8] has as its system platelets on immobilized vWf. In words: In vitro flow studies: platelet calcium flux and adhesion on immobilized vWf. It is filed as cell-based. The settings on record: vWf matrix, shear rate gradient up to 10,000 s^−1 over 1 s. The protocol: The use of an in vitro-flow based adhesion assay enables us to simultaneously analyze platelet adhesion dynamics and activation (by monitoring cytosolic calcium flux) on immobilized von Willebrand factor (vWf). Briefly, isolated platelets are perfused through vWf (100 μg/ml) coated microcapillary tubes and analysis of cytosolic calcium flux conducted in real-time by confocal microscopy.
Washed platelets (1.5×10^9) suspended in PWB were incubated with the calcium indicator dyes, Oregon Green 488 BAPTA-1, AM (1 μM) and Fura Red, AM (1.25 μM), for 30 min at 37° C. Platelets were washed twice with PWB prior to being resuspended in Tyrode's buffer containing 1 mM calcium.
For static adhesion assays, platelets were allowed to settle on the surface of vWf-coated coverslips for 30 min at 37° C. For flow assays, platelets were either perfused over a vWf-coated microcapillary tube at a constant shear rate of 600, 1800 or 10,000 s^−1 or allowed to settle on the surface of a vWf-coated microcapillary tube prior to being accelerated through a shear gradient of 10,000 s^−1 over a 1 s interval. Real time platelet calcium flux in individual platelets was monitored at 1 s intervals over the 30 min incubation period or at 0.586 s intervals for up to 175 s for static and flow-based assays, respectively.

The test system of assay [9] is T3, various isoforms of PI3K.
T3 construct: The γ isoform was produced as a recombinant protein in the Kinacia laboratories
The settings on record: measured IC50 stated to agree with previously reported values; read-out: IC50 against the various isoforms of PI3K; cited from earlier work.

Assay [10] deals with U937 cells. In words: Cell proliferation assay. The class given is cell-based. The settings on record: Homo sapiens, U-937; read-out: Anti-proliferative activity v. U937 cells Example 16 IC50/. The text has this:
The cytotoxic activity of the compounds was monitored over four days by counting cell number, and determining cell viability using a colorimetric assay of metabolic activity.

Assay [11] relates to washed platelets. Nature of the assay: Flow-based reconstitution assay (platelet adhesion to vWf). The class given is cell-based. The settings on record: 1800 s^−1. The protocol:
The platelets and reconstituted red blood cells were perfused through vWf-coated glass microslides for 1 minute at a shear rate of 1800 s^−1. Non-adherent cells were removed by washing for 10 minutes at 1800 s^−1 and the number of adherent platelet were quantitated and expressed as the mean±SEM.

The target in assay [12] is T4, P110 β isoform (Homo sapiens, UniProt P42338).
T4 construct: The α and β isoforms of the PI3K were immunoprecipitated from a platelet lysate; from tissue; host or cells: washed platelets (lysate, immunoprecipitated with anti-p110β antibody)
T4 sequence (P42338 whole entry, canonical isoform): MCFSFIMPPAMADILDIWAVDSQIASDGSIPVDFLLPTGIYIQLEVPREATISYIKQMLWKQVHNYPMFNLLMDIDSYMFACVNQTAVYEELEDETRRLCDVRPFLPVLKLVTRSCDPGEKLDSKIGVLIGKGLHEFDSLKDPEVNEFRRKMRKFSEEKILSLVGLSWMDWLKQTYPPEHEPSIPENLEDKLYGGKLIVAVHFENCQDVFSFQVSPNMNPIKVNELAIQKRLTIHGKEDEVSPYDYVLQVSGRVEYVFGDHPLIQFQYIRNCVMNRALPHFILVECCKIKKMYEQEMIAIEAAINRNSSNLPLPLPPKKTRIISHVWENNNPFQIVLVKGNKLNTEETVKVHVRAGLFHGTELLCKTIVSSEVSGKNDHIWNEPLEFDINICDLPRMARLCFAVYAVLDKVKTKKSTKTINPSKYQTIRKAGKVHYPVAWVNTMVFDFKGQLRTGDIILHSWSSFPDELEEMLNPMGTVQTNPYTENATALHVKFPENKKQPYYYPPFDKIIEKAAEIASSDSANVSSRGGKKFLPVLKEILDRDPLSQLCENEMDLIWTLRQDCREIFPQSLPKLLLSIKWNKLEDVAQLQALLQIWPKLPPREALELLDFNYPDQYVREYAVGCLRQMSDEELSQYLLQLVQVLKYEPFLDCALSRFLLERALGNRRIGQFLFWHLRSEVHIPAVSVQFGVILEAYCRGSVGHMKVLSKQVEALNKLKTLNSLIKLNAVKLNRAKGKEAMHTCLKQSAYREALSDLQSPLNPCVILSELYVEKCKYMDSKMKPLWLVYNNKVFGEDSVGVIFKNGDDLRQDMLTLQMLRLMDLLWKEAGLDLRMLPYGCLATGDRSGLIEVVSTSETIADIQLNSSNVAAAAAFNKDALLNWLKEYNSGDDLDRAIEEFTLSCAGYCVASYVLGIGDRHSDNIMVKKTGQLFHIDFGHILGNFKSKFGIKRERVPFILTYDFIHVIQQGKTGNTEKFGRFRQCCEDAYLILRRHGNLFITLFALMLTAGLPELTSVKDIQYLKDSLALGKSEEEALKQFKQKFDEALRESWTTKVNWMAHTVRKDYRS
T4 sequence (P27986 whole entry partner, canonical isoform): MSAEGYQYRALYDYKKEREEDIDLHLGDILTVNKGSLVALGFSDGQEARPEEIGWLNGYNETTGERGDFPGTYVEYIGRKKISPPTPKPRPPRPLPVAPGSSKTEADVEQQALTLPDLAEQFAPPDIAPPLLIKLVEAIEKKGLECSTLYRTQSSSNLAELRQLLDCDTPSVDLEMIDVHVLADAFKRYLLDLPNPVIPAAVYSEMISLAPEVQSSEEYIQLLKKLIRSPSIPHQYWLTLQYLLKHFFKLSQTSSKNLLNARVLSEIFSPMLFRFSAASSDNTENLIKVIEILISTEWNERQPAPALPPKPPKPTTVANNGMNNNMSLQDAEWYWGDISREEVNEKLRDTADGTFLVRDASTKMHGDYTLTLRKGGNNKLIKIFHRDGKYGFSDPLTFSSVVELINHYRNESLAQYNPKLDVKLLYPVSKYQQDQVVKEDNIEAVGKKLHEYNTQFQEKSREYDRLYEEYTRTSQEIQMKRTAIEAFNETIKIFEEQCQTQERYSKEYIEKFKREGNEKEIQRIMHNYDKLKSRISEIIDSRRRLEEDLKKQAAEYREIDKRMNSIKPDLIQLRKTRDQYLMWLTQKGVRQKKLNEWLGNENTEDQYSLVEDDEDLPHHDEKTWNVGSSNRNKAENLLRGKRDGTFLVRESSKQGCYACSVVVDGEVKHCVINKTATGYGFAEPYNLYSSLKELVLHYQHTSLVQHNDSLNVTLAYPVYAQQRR
Nature of the assay: Isoform selective in vitro PI3K enzyme assay (Example 13), β. The class given is biochemical. The protocol:
In vitro enzyme assays were conducted as a primary screen to determine drug candidate isoform affinity and specificity. The α and β isoforms of the PI3K were immunoprecipitated from a platelet lysate, using an antibodies obtained from Santa Cruz Biotechnology, that recognized specific regions of p110α (sc-7174) and β (sc-603) isoforms. The γ isoform was produced as a recombinant protein in the Kinacia laboratories. The δ isoform was immunoprecipitated from THP-1 cells in a similar manner using a δ isoform specific antibody (sc-7176). Standard phosphorylation assays using phosphatidylinositol and ^32P were used to measure the enzyme activity in the immunoprecipates in the presence or absence of an inhibitor. Enzyme activity was determined over a range of inhibitor concentrations to establish an IC50 value.

pIC50: −log10 of the molar value. Where two headings read alike, the source gives them in different places.

T1 sequence (O00329 whole entry, canonical isoform): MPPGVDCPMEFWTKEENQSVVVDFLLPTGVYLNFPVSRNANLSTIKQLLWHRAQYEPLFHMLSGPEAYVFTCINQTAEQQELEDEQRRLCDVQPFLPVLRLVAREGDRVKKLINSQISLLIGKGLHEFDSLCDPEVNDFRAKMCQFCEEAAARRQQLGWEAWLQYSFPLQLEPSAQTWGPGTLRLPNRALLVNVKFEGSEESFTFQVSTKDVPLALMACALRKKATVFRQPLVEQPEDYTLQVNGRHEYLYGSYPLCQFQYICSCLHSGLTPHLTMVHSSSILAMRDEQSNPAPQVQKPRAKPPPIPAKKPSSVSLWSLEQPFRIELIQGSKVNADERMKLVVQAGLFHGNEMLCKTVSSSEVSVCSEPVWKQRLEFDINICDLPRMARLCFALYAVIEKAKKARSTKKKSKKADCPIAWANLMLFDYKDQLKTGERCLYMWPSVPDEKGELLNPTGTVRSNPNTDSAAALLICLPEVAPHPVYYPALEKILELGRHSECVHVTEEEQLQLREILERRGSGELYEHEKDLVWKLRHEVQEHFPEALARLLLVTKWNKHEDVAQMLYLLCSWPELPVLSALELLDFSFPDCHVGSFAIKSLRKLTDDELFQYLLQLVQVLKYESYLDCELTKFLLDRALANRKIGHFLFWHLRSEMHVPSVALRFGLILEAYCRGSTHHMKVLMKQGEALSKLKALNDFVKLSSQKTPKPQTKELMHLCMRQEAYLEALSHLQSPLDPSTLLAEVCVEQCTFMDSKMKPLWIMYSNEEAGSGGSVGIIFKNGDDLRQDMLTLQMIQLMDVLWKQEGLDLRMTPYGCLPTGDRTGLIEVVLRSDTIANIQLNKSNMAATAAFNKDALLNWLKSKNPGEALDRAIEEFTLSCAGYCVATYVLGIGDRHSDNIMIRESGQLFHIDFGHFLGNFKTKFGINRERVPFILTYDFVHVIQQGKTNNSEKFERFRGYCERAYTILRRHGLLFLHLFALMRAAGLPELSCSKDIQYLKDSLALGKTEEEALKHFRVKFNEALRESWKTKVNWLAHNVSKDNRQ
T1 sequence (P27986 whole entry partner, canonical isoform): as the sequence (P27986 whole entry partner, canonical isoform) above
T2 sequence (P48736 whole entry, species assumed): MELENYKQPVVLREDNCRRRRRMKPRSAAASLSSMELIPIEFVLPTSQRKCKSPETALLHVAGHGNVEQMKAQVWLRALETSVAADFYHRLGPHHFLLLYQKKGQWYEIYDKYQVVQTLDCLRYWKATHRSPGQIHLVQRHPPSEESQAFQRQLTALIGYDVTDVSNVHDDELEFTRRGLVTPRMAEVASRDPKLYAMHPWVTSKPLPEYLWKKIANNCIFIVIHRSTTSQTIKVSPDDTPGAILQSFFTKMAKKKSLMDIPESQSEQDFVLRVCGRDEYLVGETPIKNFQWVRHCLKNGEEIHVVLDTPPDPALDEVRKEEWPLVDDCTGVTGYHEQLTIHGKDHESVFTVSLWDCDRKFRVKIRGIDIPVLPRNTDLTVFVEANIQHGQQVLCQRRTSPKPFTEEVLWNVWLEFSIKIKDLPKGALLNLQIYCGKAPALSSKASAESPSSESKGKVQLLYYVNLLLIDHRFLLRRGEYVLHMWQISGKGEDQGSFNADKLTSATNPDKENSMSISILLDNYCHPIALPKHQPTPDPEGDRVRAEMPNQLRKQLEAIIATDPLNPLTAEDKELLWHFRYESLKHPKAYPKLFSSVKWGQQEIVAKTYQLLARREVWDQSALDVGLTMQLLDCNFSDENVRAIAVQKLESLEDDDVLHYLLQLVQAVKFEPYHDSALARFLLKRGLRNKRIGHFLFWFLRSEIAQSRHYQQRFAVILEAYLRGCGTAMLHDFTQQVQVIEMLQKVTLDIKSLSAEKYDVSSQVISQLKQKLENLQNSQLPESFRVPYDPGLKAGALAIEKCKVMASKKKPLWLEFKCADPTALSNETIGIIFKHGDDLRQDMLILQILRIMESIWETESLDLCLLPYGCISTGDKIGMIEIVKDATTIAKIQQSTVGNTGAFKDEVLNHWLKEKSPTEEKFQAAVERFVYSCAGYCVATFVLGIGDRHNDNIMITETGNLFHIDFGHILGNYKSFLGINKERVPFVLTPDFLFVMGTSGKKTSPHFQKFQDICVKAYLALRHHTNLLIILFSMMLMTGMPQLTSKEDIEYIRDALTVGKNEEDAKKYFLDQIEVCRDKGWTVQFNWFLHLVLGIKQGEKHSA

“8-(1-(2-aminophenylamino)ethyl-2-(4-pyridinyl)-4H-benzopyran-1-one [KN327]”: the pIC50 in [1] is 6.60; in assay [2], 6.70; in assay [3], 7.11; in assay [5] it was 6.30; in [6] it was 4.82; in assay [7], 7.70. For the same molecule, the “treated animals returned to baseline within 10 minutes” value in [4] came to 80%.

On to `O=c1cc(N2CCOCC2)oc2c(-c3ccccc3)cccc12` [LY294002, 8-phenyl-2-(4-morpholinyl)-4H-benzopyran-4-one, reference compound], for which the “platelet responses to accelerated shear” value in assay [8] was “eliminates platelet responses to accelerated shear”. Besides, in [9], the pIC50 was 5.82 to 6.30.

On to `Cc1cc(C(C)Nc2ccccc2)c2oc(-c3ccncc3)cc(=O)c2c1` (stereo not shown) [TGX-286, 8-1-(phenylamino)ethyl-6-methyl-2-(4-pyridinyl)-4H-1-benzopyran-4-one], for which the pIC50 in assay [1] (Platelet) is 6.30; in [10] it was 5.30; in [2] it was 7.00; in assay [3] (Homo sapiens, Neutrophil) it was 8.30; in [12], 8.70; in assay [7], 8.70. Besides, the “decrease in platelet adhesion” value in [11] (10 nM) stood at 51%; in assay [11] (25 nM) it was 67%; in assay [11] (50 nM), 86%. Besides, the “treated animals returned to baseline within 10 minutes” value in [4] was 80%.
